Assay [1] has as its system ABCA1 protein. Description: Western blot of ABCA1 protein in human monocyte-derived macrophages. In kind it is cell-based. The settings on record: human primary monocytes/macrophages, 10 μM, 24 h. The procedure:
(§1) Protein extracts from macrophages were prepared by lysing the cells in modified radioimmunoprecipitation assay buffer (50 mM Tris, 150 mM NaCl, 1 mM EDTA. 1% Triton X-100) containing a protease inhibitor cocktail (Complete EDTA Free; Roche). Protein content in the extracts was determined by using the DC protein assay (Bio-Rad, Hercules, Calif.). Equal amounts of protein (40 to 50 μg) were separated by electrophoresis with 4 to 15% acrylamide gradient gels (Bio-Rad) and then transferred to nitrocellulose membrane (Trans-Blot Transfer Medium; Bio-Rad). Membranes were probed with anti-ABCA1 antibody (Novus Biologicals, Littleton, Colo.) and anti-β-actin antibody (Sigma) according to the manufacturer's recommendations. Immunoblots were developed by using a chemiluminescent detection system (Super Signal West Pico chemiluminescent substrate; Pierce, Rockford, Ill.).
For orientation: Immunoblotting shows a protein as a band on a membrane.

Assay [2] relates to ABCA1, ABCG1, SREBP-1c, apoE, LXRα, Cyp26 mRNA. Description: Quantitative real-time PCR of LXR target genes and Cyp26 in human monocyte-derived macrophages. In kind it is cell-based. As for the experimental part:
(§2) For quantification of mouse Cyp26 mRNA levels, each amplification mixture (25 μ) contained 62.5 ng of cDNA, 100 nM concentrations of reverse and forward primers, and 2.5 μl of 10× SYBR Green PCR master mix (Perkin-Elmer Life Sciences, Boston, Mass.). Quantitative expression values were extrapolated from standard curves for Cyp26 expression with 10-fold dilutions of cDNA (in triplicate). Each sample was normalized to β-actin that was deduced from TaqMan assays, triplicate results were averaged, and relative Cyp26 mRNA levels were determined. The primers mCyp26 F (5′-[…]-3′) and mCyp26 R (5′-[…]-3′) were used. RNA measurements from human monocyte-derived macrophages were performed as described previously (10, 44).
On the technique in general: Real-time PCR tracks product formation cycle by cycle.

The test system of assay [3] is acute promyelocytic leukemia. The settings on record: patients with acute promyelocytic leukemia; cited from earlier work.
Another assay has as its system RARγ protein. Description: Western blot of RARγ protein in macrophages. In kind it is cell-based. The settings on record: macrophages incubated with ATRA.
Assay [4] deals with ABCA1 protein. Description: Western blot of ABCA1 protein in mouse peritoneal macrophages. Type of assay: cell-based. The settings on record: 24 h. As for the experimental part:
as §1

Assay [5] concerns ABCA1, ABCG1, SREBP-1c, apoE, LXRα, Cyp26 mRNA. Description: Quantitative real-time PCR of LXR target genes and Cyp26 in mouse peritoneal macrophages. Type of assay: cell-based. The settings on record: 24 h. As for the experimental part:
Total RNA was isolated from mouse peritoneal macrophages or ˜50 mg of mouse liver tissue by using the RNeasy Mini kit (Qiagen, Valencia, Calif.) or RNA-Bee reagent (Tel-Test, Inc., Friendswood, Tex.), respectively, according to the manufacturer's protocol. Real-time quantitative PCR assays were performed by using the Mx4000 Quantitative PCR System (Stratagene, La Jolla, Calif.). Briefly, 5 μg of total RNA was treated with RNase-free DNase I (Ambion, Austin, Tex.), and first-strand cDNA was synthesized with oligo(dT)12-18 by using a Superscript II RNase H^− reverse transcriptase reagent kit (Invitrogen) according to the manufacturer's protocol. For quantification of mouse ABCA1, ABCG1, SREBP-1c, LXRα, ApoE, and fatty acid synthase (FAS) mRNA levels, each amplification mixture contained 62.5 ng of cDNA, appropriate concentrations of forward and reverse primers and of dual-labeled fluorogenic probe (Biosearch Technologies, Novato, Calif.), and 12.5 μl of TaqMan Universal PCR master mix (Applied Biosystems, Foster City, Calif.). PCR thermocycling parameters were 50° C. for 2 min, 95° C. for 10 min, and 45 cycles of 95° C. for 15 s and 60° C. for 1 min. All samples were analyzed for β-actin expression in the same run. Quantitative expression values were extrapolated from standard curves for the gene of interest with 10-fold dilutions of cDNA (in triplicate). Each sample was normalized to β-actin, triplicates were averaged, and relative mRNA levels were determined. The following mouse primers and probes were used: mouse ABCA1 (mABCA1) forward (F) (5′-[…]-3′), mABCA1 reverse (R) (5′-[…]-3′), and mABCA1 TaqMan probe (5′-FAM-[…]-BHQ-3′); mABCG1 F (5′-[…]-3′), mABCG1 R (5′-[…]-3′), and mABCG1 TaqMan probe (5′-FAM-[…]-BHQ-3′); mSREBP-1c F (5′-[…]-3′), mSREBP-1c R (5′-[…]-3′), and mSREBP-1c TaqMan probe (5′-FAM-[…]-BHQ-3′); mApoE F (5′-[…]-3′), mApoE R (5′-[…]-3′), and mApoE TaqMan probe (5′-FAM-[…]-BHQ-3′); mLXRα F (5′-[…]-3′), mLXRα R (5′-[…]-3′), and mLXRα TaqMan probe (5′-FAM-[…]-BHQ-3′); mFAS F (5′-[…]-3′), mFAS R (5′-[…]-3′), and mFAS TaqMan probe (5′-FAM-[…]-BHQ-3′); and mβ-actin F (5′-[…]-3′), mβ-actin R (5′-[…]-3′), and mβ-actin TaqMan probe (5′-JOE-[…]-BHQ-3′).
as §2

Assay [6] has as its system ABCA1-mediated cholesterol efflux from mouse peritoneal macrophages. Description: Cholesterol efflux to apoA-I from cholesterol-loaded macrophages.
[7] abbreviates: human primary monocytes/macrophages, ATRA 0.5 to 5 μM, 24 h.
The mark [8] stands for this setting: mouse primary macrophages, ATRA 0.1 to 5 μM.

Some results are limits rather than exact numbers.

Procedure for RARγ protein: Nuclear protein extracts from tissues and macrophages were isolated according to the following method. Tissue samples and cells were first homogenized on ice and then lysed in lysis buffer (10 mM Tris [pH 7.5], 3 mM MgCl2, 10 mM NaCl, 0.5% NP-40) containing protease inhibitor cocktail. The nucleus was then pelleted by centrifugation for 10 min at 6,000× g, immediately resuspended in a nucleus suspension buffer (250 mM Tris [pH 8.0], 60 mM KCl, I mM dithiothrietol), and then rotated for 1 h. […] The intensities of the bands were quantified by using ImageQuant and normalized to (β-actin.

As for `CC1=C(/C=C/C(C)=C/C=C/C(C)=C/C(=O)O)C(C)(C)CCC1` [ATRA, all-trans-retinoic acid], the ABCA1 protein entry in the assay on ABCA1 protein [1] is given as “increased”. Besides, in assay [2] (human primary macrophages, even at the higher dose), the “apoE mRNA induction” value is “not induced”. In assay [2] (setting [7]), the “ABCA1 mRNA induction” value is “strong induction”, the “ABCG1 mRNA induction” value is “strong induction”, the “LXRα mRNA induction” value is “weaker but significant increases” and the “SREBP-1c mRNA induction” value was “weaker but significant increases”. In addition, in assay [3], the “patients in whom remission is induced” value is on record as “ca. 80%”. For the same compound, the “induction of RARγ protein” value with RARγ protein is given as < 2 fold. In addition, the ABCA1 protein levels result with ABCA1 protein [4] was “dose dependently increased”. In addition, the “ABCA1 mRNA” value in assay [5] (mouse peritoneal macrophages, ATRA 0.1 to 5 μM) is “increase in the mRNA that was parallel to the dose response of protein and cholesterol efflux”. The “lowest dose giving ABCA1 mRNA response” value in assay [5] (mouse primary macrophages) worked out at 0.25 µM. In assay [5] (setting [8]), the “ABCG1 mRNA induction” value is “weaker and somewhat inconsistent induction”; the “LXRα mRNA induction” value was “no significant induction”; the “SREBP-1c mRNA induction” value is “weaker and somewhat inconsistent induction”; the “apoE mRNA induction” value was “no significant induction”. For the same compound, in assay [6], the “ABCA1-dependent cholesterol efflux to apoA-1, dose response” value is given as “increased ABCA1-dependent cholesterol efflux to apoA-1 in a dose-dependent fashion”. Besides, in assay [6] (1 and 5 μM ATRA), the “increase in cholesterol efflux to apoA-I, ATRA compared with TO-901317” value is recorded as “comparable to that occurring in macrophages treated with the LXR activator TO-901317”. Moreover, in assay [6] (maximum dose of 10 μM), the “increase of cholesterol efflux to apoA-1” value is reported as ~2 fold.

Source of the values: US20060009520A1, “Retinoid-based methods for altering macrophage cholesterol” (priority 2004, published 2006).
